Reference: PubChem BioAssay (NCI)
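Dose response: 5 concentrations. Exposure: 48 h. Format: 96-well plates. Endpoint: linear interpolation; highest concentration if not reached. At the GI50, growth is halved. At the TGI there is no net growth.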

How the values were obtained:
Assay in all cases: NCI tumour cell line growth inhibition, 48 h
[1] = test system: A549 NSCLC
[2] = test system: HCT-15 colon
[3] = test system: HT29 colon
[4] = test system: MALME-3M melanoma
[5] = test system: MCF7 breast
[6] = test system: MDA-MB-435
[7] = test system: OVCAR-3 ovarian
[8] = test system: SF-295 CNS
[9] = test system: SK-MEL-5 melanoma
[10] = test system: SN12C renal

SMILES | GI50 [1] | TGI [1] | GI50 [2] | TGI [2] | GI50 [3] | TGI [3] | GI50 [4] | TGI [4] | GI50 [5] | TGI [5] | GI50 [6] | TGI [6] | GI50 [7] | TGI [7] | GI50 [8] | TGI [8] | GI50 [9] | TGI [9] | GI50 [10] | TGI [10]
O=C(N/N=C/c1ccc(O)cc1O)c1cccnc1 | 4.66 µM | > 100 µM | 0.614 µM | > 100 µM | 7.52 µM | > 100 µM | 5.16 µM | 39.2 µM | 1.94 µM | 7.5 µM | 7.52 µM | > 100 µM | 0.474 µM | 29.4 µM | 6.66 µM | > 100 µM | 3.3 µM | 27.6 µM | 3.58 µM | 69 µM
O=C(CCN1CCOCC1)Nc1cccc(-n2cc(-c3ccncc3)c(-c3ccc(Cl)c(O)c3)n2)c1 | 3.75 µM | 16.1 µM | 1.24 µM | 10.8 µM | 1.9 µM | 11 µM | 1.65 µM | 10.8 µM | 0.634 µM | 11.9 µM | 0.313 µM | 1.29 µM | 0.644 µM | 7.16 µM | 1.31 µM | 3.38 µM | 0.621 µM | 2.36 µM | 3.74 µM | 23.6 µM
Cn1cc(-c2csc(-c3cn(C)c4ccc(F)cc34)n2)c2cnccc21 | 1.67 µM | 3.27 µM | 1.68 µM | 3.27 µM | 1.47 µM | 3 µM | 1.97 µM | 3.57 µM | 1.93 µM | 3.66 µM | 1.67 µM | 3.1 µM | 1.95 µM | 3.48 µM | 1.71 µM | 3.23 µM | 1.66 µM | 3.05 µM | 1.7 µM | 3.14 µM
O=C1c2ccccc2C(=O)c2c(NCCN=Cc3ccccc3O)cccc21 | 4.69 µM | 14.4 µM | 4.03 µM | 16.7 µM | 2.26 µM |  | 1.55 µM | 3.84 µM | 1.57 µM | 5.27 µM | 2.51 µM | 7.4 µM | 2.38 µM | 7.92 µM | 2.43 µM | 5.01 µM | 1.51 µM | 5.2 µM | 8.28 µM | > 54.1 µM
c1ccc(NCCSc2nc3ccccc3s2)cc1 |  | > 100 µM |  | 43 µM |  | > 100 µM |  | > 100 µM |  | > 100 µM |  | > 100 µM |  | > 100 µM |  | > 100 µM |  | 42.3 µM |  | > 100 µM
COc1ccc(-c2ccc(NNC(=O)c3ccc(F)cc3)nn2)cc1OC | 99.5 µM | > 100 µM | 65.5 µM | > 100 µM | > 100 µM | > 100 µM | > 100 µM | > 100 µM | 93.4 µM | > 100 µM | > 100 µM | > 100 µM | 79.7 µM | > 100 µM | > 100 µM | > 100 µM | 45 µM | > 100 µM | > 100 µM | > 100 µM
CN1C(NNC(=O)c2cccnc2)=NS(=O)(=O)c2cc(Cl)ccc21 | > 100 µM | > 100 µM | > 100 µM | > 100 µM | > 100 µM | > 100 µM | > 100 µM | > 100 µM | > 100 µM | > 100 µM | > 100 µM | > 100 µM | > 100 µM | > 100 µM | > 100 µM | > 100 µM | > 100 µM | > 100 µM | > 100 µM | > 100 µM
O=[N+]([O-])c1ccc(Sc2c3ccccc3nc3ccccc23)cn1 |  | > 100 µM |  | 28.8 µM |  | 28 µM |  | 19.9 µM |  | 19.1 µM |  | 33.2 µM |  | 20.3 µM |  | > 100 µM |  | > 100 µM |  | 43.2 µM
CN(C)CCNc1nc2ccccc2c2c(=O)c3cc(F)ccc3sc12 | 2.1 µM | 4.83 µM | 1.57 µM | 3.08 µM | 1.68 µM | 3.48 µM | 1.65 µM | 3.15 µM | 1.62 µM | 3.22 µM | 1.66 µM | 3.06 µM | 1.84 µM | 3.33 µM | 1.76 µM | 3.22 µM | 1.7 µM | 3.08 µM | 1.57 µM | 3 µM
CS(=O)(=O)CS(=O)(=O)OCCCl |  | 1640 µM |  | 1090 µM |  | 1320 µM |  | 1270 µM |  | 1420 µM |  | 2330 µM |  | 983 µM |  | 554 µM |  | 777 µM |  | 706 µM
